Values of other authors in PubChem BioAssay AID1259409 (Chemical Carcinogenesis Research Information System (CCRIS), 2018).

System: rodent chemically induced tumor inhibition, incidence and multiplicity
Assay: CCRIS tumor inhibitor studies

SMILES: NC(=O)c1cccnc1
- tumour outcome (control, treated, inhibition, significance) (Carcinogen: N-NITROSOBIS(2-OXOPROPYL)AMINE, 60599-38-4, Dose [Inhibitor]: 0, 0.2% IN DRINKING WATER FOR 49 WK POST CARCINOGEN TREATMENT (STUDY DURATION: 52 WK), Route [Inhibitor]: ORAL, Species: HAMSTER, Strain/Sex: SYRIAN GOLDEN/FEMALE, Target Tissue: Type of Lesion: TRACHEA: PAPILLOMA, Dose [Carcinogen]: 10 MG/KG BW 1/WK FOR FIRST 3 WK OF STUDY DURATION, Promoter: NONE): 1/30 (3%), 0/29 (0%), 100%, not significant
- tumour outcome (control, treated, inhibition, significance) (Carcinogen: N-NITROSOBIS(2-OXOPROPYL)AMINE, 60599-38-4, Dose [Inhibitor]: 0, 0.5% IN DRINKING WATER FOR 49 WK BEGINNING POST CARCINOGEN TREATMENT (STUDY DURATION: 52 WK), Route [Inhibitor]: ORAL, Species: HAMSTER, Strain/Sex: SYRIAN/FEMALE, Target Tissue: Type of Lesion: PANCREAS: ADENOCARCINOMA, Dose [Carcinogen]: 10 MG/KG 1/WK FOR 3 WK, Promoter: NONE): 18/30 (60%), 21/30 (70%), -17%, not significant
- tumour outcome (control, treated, inhibition, significance) (Carcinogen: N-NITROSOBIS(2-OXOPROPYL)AMINE, 60599-38-4, Dose [Inhibitor]: 0, 0.5% IN DRINKING WATER FOR 49 WK POST CARCINOGEN TREATMENT (STUDY DURATION: 52 WK), Route [Inhibitor]: ORAL, Species: HAMSTER, Strain/Sex: SYRIAN GOLDEN/FEMALE, Target Tissue: Type of Lesion: KIDNEY: NEPHROBLASTOMA, Dose [Carcinogen]: 10 MG/KG BW 1/WK FOR FIRST 3 WK OF STUDY DURATION, Promoter: NONE): 2/30 (7%), 0/30 (0%), 100%, not significant
- outcome (Carcinogen: N-NITROSOBIS(2-OXOPROPYL)AMINE, 60599-38-4, Dose [Inhibitor]: 0, 0.5% IN DRINKING WATER FOR 49 WK POST CARCINOGEN TREATMENT (STUDY DURATION: 52 WK), Route [Inhibitor]: ORAL, Species: HAMSTER, Strain/Sex: SYRIAN GOLDEN/FEMALE, Target Tissue: Type of Lesion: KIDNEY: RENAL CELL ADENOMA, Dose [Carcinogen]: 10 MG/KG BW 1/WK FOR FIRST 3 WK OF STUDY DURATION, Promoter: NONE): 0/30 (0%), 2/30 (7%), -100%, not significant
- tumour outcome (control, treated, inhibition, significance) (Carcinogen: N-NITROSOBIS(2-OXOPROPYL)AMINE, 60599-38-4, Dose [Inhibitor]: 0, 0.5% IN DRINKING WATER FOR 49 WK POST CARCINOGEN TREATMENT (STUDY DURATION: 52 WK), Route [Inhibitor]: ORAL, Species: HAMSTER, Strain/Sex: SYRIAN GOLDEN/FEMALE, Target Tissue: Type of Lesion: KIDNEY: RENAL CELL CARCINOMA, Dose [Carcinogen]: 10 MG/KG BW 1/WK FOR FIRST 3 WK OF STUDY DURATION, Promoter: NONE): 1/30 (3%), 2/30 (7%), -133%, not significant
- tumour outcome (control, treated, inhibition, significance) (Carcinogen: N-NITROSOBIS(2-OXOPROPYL)AMINE, 60599-38-4, Dose [Inhibitor]: 0, 0.5% IN DRINKING WATER FOR 49 WK POST CARCINOGEN TREATMENT (STUDY DURATION: 52 WK), Route [Inhibitor]: ORAL, Species: HAMSTER, Strain/Sex: SYRIAN GOLDEN/FEMALE, Target Tissue: Type of Lesion: LIVER: CHOLANGIOCELLULAR ADENOMA, Dose [Carcinogen]: 10 MG/KG BW 1/WK FOR FIRST 3 WK OF STUDY DURATION, Promoter: NONE): 1/30 (3%), 3/30 (10%), -233%, not significant
- outcome (Carcinogen: N-NITROSOBIS(2-OXOPROPYL)AMINE, 60599-38-4, Dose [Inhibitor]: 0, 0.5% IN DRINKING WATER FOR 49 WK POST CARCINOGEN TREATMENT (STUDY DURATION: 52 WK), Route [Inhibitor]: ORAL, Species: HAMSTER, Strain/Sex: SYRIAN GOLDEN/FEMALE, Target Tissue: Type of Lesion: LIVER: CHOLANGIOCELLULAR CARCINOMA, Dose [Carcinogen]: 10 MG/KG BW 1/WK FOR FIRST 3 WK OF STUDY DURATION, Promoter: NONE): 0/30 (0%), 3/30 (10%), -%, not significant
- outcome (Carcinogen: N-NITROSOBIS(2-OXOPROPYL)AMINE, 60599-38-4, Dose [Inhibitor]: 0, 0.5% IN DRINKING WATER FOR 49 WK POST CARCINOGEN TREATMENT (STUDY DURATION: 52 WK), Route [Inhibitor]: ORAL, Species: HAMSTER, Strain/Sex: SYRIAN GOLDEN/FEMALE, Target Tissue: Type of Lesion: LIVER: CYSTADENOMA, Dose [Carcinogen]: 10 MG/KG BW 1/WK FOR FIRST 3 WK OF STUDY DURATION, Promoter: NONE): 0/30 (0%), 2/30 (7%), -%, not significant
- tumour outcome (control, treated, inhibition, significance) (Carcinogen: N-NITROSOBIS(2-OXOPROPYL)AMINE, 60599-38-4, Dose [Inhibitor]: 0, 0.5% IN DRINKING WATER FOR 49 WK POST CARCINOGEN TREATMENT (STUDY DURATION: 52 WK), Route [Inhibitor]: ORAL, Species: HAMSTER, Strain/Sex: SYRIAN GOLDEN/FEMALE, Target Tissue: Type of Lesion: LIVER: HEPATOCELLULAR ADENOMA, Dose [Carcinogen]: 10 MG/KG BW 1/WK FOR FIRST 3 WK OF STUDY DURATION, Promoter: NONE): 2/30 (7%), 4/30 (13%), -86%, not significant
- tumour outcome (control, treated, inhibition, significance) (Carcinogen: N-NITROSOBIS(2-OXOPROPYL)AMINE, 60599-38-4, Dose [Inhibitor]: 0, 0.5% IN DRINKING WATER FOR 49 WK POST CARCINOGEN TREATMENT (STUDY DURATION: 52 WK), Route [Inhibitor]: ORAL, Species: HAMSTER, Strain/Sex: SYRIAN GOLDEN/FEMALE, Target Tissue: Type of Lesion: LIVER: HEPATOCELLULAR CARCINOMA, Dose [Carcinogen]: 10 MG/KG BW 1/WK FOR FIRST 3 WK OF STUDY DURATION, Promoter: NONE): 2/30 (7%), 2/30 (7%), 0%, not significant
- tumour outcome (control, treated, inhibition, significance) (Carcinogen: N-NITROSOBIS(2-OXOPROPYL)AMINE, 60599-38-4, Dose [Inhibitor]: 0, 0.5% IN DRINKING WATER FOR 49 WK POST CARCINOGEN TREATMENT (STUDY DURATION: 52 WK), Route [Inhibitor]: ORAL, Species: HAMSTER, Strain/Sex: SYRIAN GOLDEN/FEMALE, Target Tissue: Type of Lesion: LUNG: ADENOCARCINOMA, Dose [Carcinogen]: 10 MG/KG BW 1/WK FOR FIRST 3 WK OF STUDY DURATION, Promoter: NONE): 11/30 (37%), 9/30 (30%), 19%, not significant
- tumour outcome (control, treated, inhibition, significance) (Carcinogen: N-NITROSOBIS(2-OXOPROPYL)AMINE, 60599-38-4, Dose [Inhibitor]: 0, 0.5% IN DRINKING WATER FOR 49 WK POST CARCINOGEN TREATMENT (STUDY DURATION: 52 WK), Route [Inhibitor]: ORAL, Species: HAMSTER, Strain/Sex: SYRIAN GOLDEN/FEMALE, Target Tissue: Type of Lesion: LUNG: ADENOMA, Dose [Carcinogen]: 10 MG/KG BW 1/WK FOR FIRST 3 WK OF STUDY DURATION, Promoter: NONE): 15/30 (50%), 17/30 (56.7%), -13%, not significant
- tumour outcome (control, treated, inhibition, significance) (Carcinogen: N-NITROSOBIS(2-OXOPROPYL)AMINE, 60599-38-4, Dose [Inhibitor]: 0, 0.5% IN DRINKING WATER FOR 49 WK POST CARCINOGEN TREATMENT (STUDY DURATION: 52 WK), Route [Inhibitor]: ORAL, Species: HAMSTER, Strain/Sex: SYRIAN GOLDEN/FEMALE, Target Tissue: Type of Lesion: LUNG: SQUAMOUS CELL CARCINOMA, Dose [Carcinogen]: 10 MG/KG BW 1/WK FOR FIRST 3 WK OF STUDY DURATION, Promoter: NONE): 2/30 (7%), 2/30 (7%), 0%, not significant
- tumour outcome (control, treated, inhibition, significance) (Carcinogen: N-NITROSOBIS(2-OXOPROPYL)AMINE, 60599-38-4, Dose [Inhibitor]: 0, 0.5% IN DRINKING WATER FOR 49 WK POST CARCINOGEN TREATMENT (STUDY DURATION: 52 WK), Route [Inhibitor]: ORAL, Species: HAMSTER, Strain/Sex: SYRIAN GOLDEN/FEMALE, Target Tissue: Type of Lesion: PANCREAS (DUCTAL): ADENOCARCINOMA, Dose [Carcinogen]: 10 MG/KG BW 1/WK FOR FIRST 3 WK OF STUDY DURATION, Promoter: NONE): 18/30 (60%), 21/30 (70%), -17%, not significant
- tumour outcome (control, treated, inhibition, significance) (Carcinogen: N-NITROSOBIS(2-OXOPROPYL)AMINE, 60599-38-4, Dose [Inhibitor]: 0, 0.5% IN DRINKING WATER FOR 49 WK POST CARCINOGEN TREATMENT (STUDY DURATION: 52 WK), Route [Inhibitor]: ORAL, Species: HAMSTER, Strain/Sex: SYRIAN GOLDEN/FEMALE, Target Tissue: Type of Lesion: THYROID: ADENOMA, Dose [Carcinogen]: 10 MG/KG BW 1/WK FOR FIRST 3 WK OF STUDY DURATION, Promoter: NONE): 1/30 (3%), 0/30 (0%), 100%, not significant
- tumour outcome (control, treated, inhibition, significance) (Carcinogen: N-NITROSOBIS(2-OXOPROPYL)AMINE, 60599-38-4, Dose [Inhibitor]: 0, 350 MG/KG 10 MIN PRIOR TO AND 3 HR POST CARCINOGEN DOSE (STUDY DURATION: 52 WK), Route [Inhibitor]: INTRAPERITONEAL, Species: HAMSTER, Strain/Sex: SYRIAN/MALE, FEMALE, Target Tissue: Type of Lesion: PANCREAS: DUCTAL/DUCTULAR CARCINOMA, Dose [Carcinogen]: 10 MG/KG ONCE, Promoter: NONE USED): 5/60 (8%), 0/35 (0%), 100%, p<0.0001
- tumour outcome (control, treated, inhibition, significance) (Carcinogen: N-NITROSOBIS(2-OXOPROPYL)AMINE, 60599-38-4, Dose [Inhibitor]: 0, 350 MG/KG 10 MIN PRIOR TO AND 3 HR POST CARCINOGEN DOSE (STUDY DURATION: 52 WK), Route [Inhibitor]: INTRAPERITONEAL, Species: HAMSTER, Strain/Sex: SYRIAN/MALE, FEMALE, Target Tissue: Type of Lesion: PANCREAS: DUCTULAR ADENOMA, Dose [Carcinogen]: 10 MG/KG ONCE, Promoter: NONE USED): 25/60 (42%), 5/35 (14%), 67%, p=0.05
- tumour outcome (control, treated, inhibition, significance) (Carcinogen: URETHANE, 51-79-6, Dose [Inhibitor]: 1.0% (1.02 MG/G BW/D) IN POWDERED DIET FOR 10 D POST CARCINOGEN DOSE (STUDY DURATION: 5 MO), Route [Inhibitor]: ORAL, Species: MOUSE, Strain/Sex: ICR/FEMALE, Target Tissue: Type of Lesion: LUNG: TUMOR, Dose [Carcinogen]: 1 MG/G ONCE, Promoter: NONE USED): 27/31 (87%), 47/51 (92%), -6%, not calculated
- tumour outcome (control, treated, inhibition, significance) (Carcinogen: URETHANE, 51-79-6, Dose [Inhibitor]: 2.5% (2.83 MG/G BW/D) IN POWDERED DIET FOR 10 D POST CARCINOGEN DOSE (STUDY DURATION: 5 MO), Route [Inhibitor]: ORAL, Species: MOUSE, Strain/Sex: ICR/FEMALE, Target Tissue: Type of Lesion: LUNG: TUMOR, Dose [Carcinogen]: 1 MG/G ONCE, Promoter: NONE USED): 27/31 (87%), 47/54 (87%), 0%, not calculated
